Where two headings read alike, the source gives them in different places.
Key:
BRM = target: T1, BRM (Homo sapiens, UniProt P51531); test: ATPase catalytic activity of BRM, ADP-Glo in vitro biochemical assay; conditions: ATPase catalytic activity, 30 nM BRM, 400 μM ATP
T1 construct: made in house; host or cells: High Five insect cells

BRG-1 = target: T2, BRG-1 (Homo sapiens, UniProt P51532); test: ATPase catalytic activity of BRG-1, ADP-Glo in vitro biochemical assay; conditions: ATPase catalytic activity, 30 nM BRG-1, 400 μM ATP
T2 construct: made in house; host or cells: High Five insect cells
T2 sequence (P51532 whole entry): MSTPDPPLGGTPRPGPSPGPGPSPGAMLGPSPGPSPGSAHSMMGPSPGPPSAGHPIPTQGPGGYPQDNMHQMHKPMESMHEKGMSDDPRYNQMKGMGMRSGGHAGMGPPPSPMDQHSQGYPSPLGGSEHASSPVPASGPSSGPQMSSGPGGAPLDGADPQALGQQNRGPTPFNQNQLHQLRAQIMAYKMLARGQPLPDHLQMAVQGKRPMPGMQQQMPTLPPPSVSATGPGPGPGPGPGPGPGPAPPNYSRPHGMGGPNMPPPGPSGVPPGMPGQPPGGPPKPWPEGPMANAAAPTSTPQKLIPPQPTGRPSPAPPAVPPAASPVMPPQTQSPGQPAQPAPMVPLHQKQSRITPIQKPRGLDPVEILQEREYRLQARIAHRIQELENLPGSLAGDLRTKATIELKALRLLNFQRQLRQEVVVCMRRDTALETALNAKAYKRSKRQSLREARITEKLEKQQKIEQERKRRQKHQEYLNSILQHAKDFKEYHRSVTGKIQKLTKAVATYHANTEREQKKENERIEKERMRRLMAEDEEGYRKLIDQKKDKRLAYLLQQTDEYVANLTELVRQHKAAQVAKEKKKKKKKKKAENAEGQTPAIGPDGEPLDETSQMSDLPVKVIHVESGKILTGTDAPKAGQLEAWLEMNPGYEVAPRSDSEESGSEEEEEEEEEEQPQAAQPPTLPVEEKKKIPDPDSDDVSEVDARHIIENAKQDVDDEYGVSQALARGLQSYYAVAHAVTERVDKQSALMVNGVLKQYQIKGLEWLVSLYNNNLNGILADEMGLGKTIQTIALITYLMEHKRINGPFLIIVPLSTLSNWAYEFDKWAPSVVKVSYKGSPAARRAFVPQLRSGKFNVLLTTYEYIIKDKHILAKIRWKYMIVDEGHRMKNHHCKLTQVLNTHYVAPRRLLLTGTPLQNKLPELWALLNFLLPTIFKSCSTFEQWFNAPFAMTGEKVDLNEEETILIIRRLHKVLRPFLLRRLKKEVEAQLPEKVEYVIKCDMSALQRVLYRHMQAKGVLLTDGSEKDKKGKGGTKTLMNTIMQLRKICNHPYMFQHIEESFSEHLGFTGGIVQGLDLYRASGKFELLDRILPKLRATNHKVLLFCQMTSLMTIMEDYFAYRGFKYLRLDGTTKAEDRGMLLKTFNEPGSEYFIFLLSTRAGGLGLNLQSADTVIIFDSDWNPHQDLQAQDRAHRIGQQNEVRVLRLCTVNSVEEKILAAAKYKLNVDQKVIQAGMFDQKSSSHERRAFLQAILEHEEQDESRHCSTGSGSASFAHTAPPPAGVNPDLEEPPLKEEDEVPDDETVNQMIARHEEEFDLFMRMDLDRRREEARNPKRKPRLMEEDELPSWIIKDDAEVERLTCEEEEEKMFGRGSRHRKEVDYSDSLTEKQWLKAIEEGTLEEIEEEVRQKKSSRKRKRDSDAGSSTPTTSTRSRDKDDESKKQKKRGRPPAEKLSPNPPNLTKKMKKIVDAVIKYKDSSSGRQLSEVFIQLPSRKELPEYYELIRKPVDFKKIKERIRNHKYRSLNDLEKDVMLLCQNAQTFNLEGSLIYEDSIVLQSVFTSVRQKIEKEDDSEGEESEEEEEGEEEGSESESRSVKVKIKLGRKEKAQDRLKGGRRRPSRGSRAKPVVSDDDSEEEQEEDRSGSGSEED

T1 sequence (P51531 whole entry): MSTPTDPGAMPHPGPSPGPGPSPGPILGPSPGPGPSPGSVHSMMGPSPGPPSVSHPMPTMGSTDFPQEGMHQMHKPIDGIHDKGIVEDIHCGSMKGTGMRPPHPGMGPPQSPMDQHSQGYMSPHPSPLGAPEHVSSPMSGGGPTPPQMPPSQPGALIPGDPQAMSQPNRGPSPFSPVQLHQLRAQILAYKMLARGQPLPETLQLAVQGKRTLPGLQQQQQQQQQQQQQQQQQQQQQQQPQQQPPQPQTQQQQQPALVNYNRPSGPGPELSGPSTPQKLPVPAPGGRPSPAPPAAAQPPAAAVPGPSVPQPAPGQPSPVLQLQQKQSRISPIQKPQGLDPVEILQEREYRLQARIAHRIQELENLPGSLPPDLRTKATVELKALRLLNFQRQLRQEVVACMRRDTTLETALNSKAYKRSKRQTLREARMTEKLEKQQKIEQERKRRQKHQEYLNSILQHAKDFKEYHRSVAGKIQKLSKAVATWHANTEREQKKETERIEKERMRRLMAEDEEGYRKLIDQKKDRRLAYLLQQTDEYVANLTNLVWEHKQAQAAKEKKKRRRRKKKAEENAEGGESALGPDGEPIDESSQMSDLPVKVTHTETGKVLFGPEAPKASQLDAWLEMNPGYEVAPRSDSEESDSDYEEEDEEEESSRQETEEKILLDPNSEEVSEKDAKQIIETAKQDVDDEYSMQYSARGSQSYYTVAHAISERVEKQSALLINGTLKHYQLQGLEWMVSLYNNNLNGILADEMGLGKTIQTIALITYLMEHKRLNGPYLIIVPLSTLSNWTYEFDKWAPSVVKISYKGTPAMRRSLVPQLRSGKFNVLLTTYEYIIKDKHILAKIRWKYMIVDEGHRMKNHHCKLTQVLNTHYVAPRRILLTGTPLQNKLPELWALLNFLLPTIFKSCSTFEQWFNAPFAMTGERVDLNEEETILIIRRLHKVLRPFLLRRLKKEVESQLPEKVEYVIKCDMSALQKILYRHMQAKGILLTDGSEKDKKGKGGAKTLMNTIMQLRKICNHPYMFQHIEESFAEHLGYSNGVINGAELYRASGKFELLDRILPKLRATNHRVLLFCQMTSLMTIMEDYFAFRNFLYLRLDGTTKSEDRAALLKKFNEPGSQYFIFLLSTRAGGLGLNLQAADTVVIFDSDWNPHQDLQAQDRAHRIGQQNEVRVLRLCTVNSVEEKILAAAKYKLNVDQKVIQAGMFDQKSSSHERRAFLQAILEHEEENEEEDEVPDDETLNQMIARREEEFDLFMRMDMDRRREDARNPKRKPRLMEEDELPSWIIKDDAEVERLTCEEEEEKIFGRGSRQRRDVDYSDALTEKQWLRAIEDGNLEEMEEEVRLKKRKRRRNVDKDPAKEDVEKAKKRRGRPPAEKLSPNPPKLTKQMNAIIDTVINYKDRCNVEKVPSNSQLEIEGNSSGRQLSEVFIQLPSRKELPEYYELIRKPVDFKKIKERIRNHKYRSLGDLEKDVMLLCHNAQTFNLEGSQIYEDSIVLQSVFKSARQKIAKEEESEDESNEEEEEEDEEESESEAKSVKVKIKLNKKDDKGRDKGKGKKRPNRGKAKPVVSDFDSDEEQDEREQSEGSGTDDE

Compound	IC50 (BRM; read-out: BRM IP50 (μM)*)	IC50 (BRG-1; read-out: BRG1 IP50 (μM)*)	IC50 (BRM; read-out: BRM IP50)	IC50 (BRG-1; read-out: BRG1 IP50)
C[C@@H]1CN(c2cccc(-c3csc(NC(=O)CNC(=O)c4ccn(C5(C)CC5)c4)n3)n2)C[C@H](C)O1 [Compound 333]	< 0.01 µM	< 0.01 µM		
C[C@@H]1CCCN(c2cccc(-c3csc(NC(=O)CNC(=O)c4ccn(S(C)(=O)=O)c4)n3)n2)C1 [Compound 336]	> 0.01 µM	> 0.01 µM		
CC1(n2ccc(C(=O)NCC(=O)Nc3nc(-c4cccc(N5CCC(O)CC5)n4)cs3)c2)COC1 [Compound 337]	> 0.01 µM	> 0.01 µM		
CS(=O)(=O)n1ccc(C(=O)NCC(=O)Nc2nc(-c3cccc(N4CCC(F)CC4)n3)cs2)c1 [Compound 339]	> 0.01 µM	> 0.01 µM		
C[C@H]1CCCN(c2cccc(-c3csc(NC(=O)CNC(=O)c4ccn(S(C)(=O)=O)c4)n3)n2)C1 [Compound 340]	> 0.01 µM	> 0.01 µM		
CC1(n2ccc(C(=O)NCC(=O)Nc3nc(-c4cccc(N5CCOCC5)n4)cs3)c2)COC1 [Compound 341]	> 0.01 µM	> 0.1 µM		
C[C@@H]1CN(c2cccc(-c3csc(NC(=O)CNC(=O)c4ccn(C5COC5)c4)n3)n2)C[C@H](C)O1 [Compound 343]	> 0.01 µM	> 0.1 µM		
C[C@@H]1CN(c2cccc(-c3csc(NC(=O)CNC(=O)c4ccn(C(C)(C)C)n4)n3)n2)C[C@H](C)O1 [Compound 344]	> 0.01 µM	> 0.01 µM		
CS(=O)(=O)n1ccc(C(=O)NCC(=O)Nc2nc(-c3cccc(C#CC4COC4)c3)cs2)c1 [Compound 349]	> 0.01 µM	> 0.01 µM		
COC[C@H](NC(=O)c1ccn(S(C)(=O)=O)c1)C(=O)Nc1nc(-c2cccc(C3CC(C)(C)OC(C)(C)C3)c2)cs1 [Compound 353]	> 0.01 µM	> 0.1 µM		
C[C@H](NC(=O)c1ccn(S(C)(=O)=O)c1)C(=O)Nc1nc(-c2cccc(-c3cnn(C)n3)c2)cs1 [Compound 355]	> 0.01 µM	> 0.01 µM		
CC1(C#Cc2cccc(-c3csc(NC(=O)CNC(=O)c4ccn(S(C)(=O)=O)c4)n3)c2)COC1 [Compound 361, N-(2-((4-(3-((3-methyloxetan-3-yl)ethynyl)phenyl)thiazol-2-yl)amino)-2-oxoethyl)-1-(methylsulfonyl)-1H-pyrrole-3-carboxamide]	> 0.01 µM	> 0.01 µM		
COC(C)(C)C#Cc1cccc(-c2csc(NC(=O)CNC(=O)c3ccn(C(C)(C)C)c3)n2)n1 [Compound 362, 1-(tert-butyl)-N-(2-((4-(6-(3-methoxy-3-methylbut-1-yn-1-yl)pyridin-2-yl)thiazol-2-yl)amino)-2-oxoethyl)-1H-pyrrole-3-carboxamide]	> 0.1 µM	> 0.1 µM		
COC(C)(C)C#Cc1cccc(-c2csc(NC(=O)CNC(=O)c3ccn(S(C)(=O)=O)c3)n2)c1 [Compound 363]	> 0.01 µM	> 0.01 µM		
C[C@H](NC(=O)c1ccn(S(C)(=O)=O)c1)C(=O)Nc1nc(-c2cccc(N3CCC3)c2)cs1 [Compound 364]	> 0.01 µM	> 0.01 µM		
C[C@H](NC(=O)c1ccn(S(C)(=O)=O)c1)C(=O)Nc1nc(-c2cccc(N3CC(O)C3)c2)cs1 [Compound 365]	> 0.01 µM	> 0.01 µM		
COC[C@H](NC(=O)c1ccn(S(C)(=O)=O)c1)C(=O)Nc1nc(-c2cccc(N3C[C@@H](C)O[C@@H](C)C3)c2F)cs1 [Compound 368]	> 0.01 µM	> 0.01 µM		
COC[C@H](NC(=O)c1ccn(S(C)(=O)=O)c1)C(=O)Nc1nc(-c2cccc(N3CCC(O)CC3)c2)cs1 [Compound 369]	< 0.01 µM	> 0.01 µM		
C[C@H](NC(=O)c1ccn(S(C)(=O)=O)c1)C(=O)Nc1nc(-c2cccc(N3CCC(O)CC3)c2)cs1 [Compound 370]	> 0.01 µM	> 0.01 µM		
C[C@@H]1CN(c2cccc(-c3cccc(NC(=O)CNC(=O)c4ccn(S(C)(=O)=O)c4)n3)c2)C[C@H](C)O1 [Compound 374, N-[2-[[6-[3-[(cis)-2,6-dimethylmorpholin-4-yl]phenyl]-2-pyridyl]amino]-2-oxo-ethyl]-1-methylsulfonyl-pyrrole-3-carboxamide]	> 0.01 µM	> 0.01 µM		
C[C@@H]1CN(c2cccc(-c3csc(NC(=O)[C@H](CO)NC(=O)c4ccn(C5(C)COC5)c4)n3)n2)C[C@H](C)O1 [Compound 375]	> 0.01 µM	> 0.01 µM		
COC[C@H](NC(=O)c1ccn(C2(C)COC2)c1)C(=O)Nc1nc(-c2ccc(F)c(N3C[C@@H](C)O[C@@H](C)C3)n2)cs1 [Compound 376]	> 0.01 µM	> 0.01 µM		
COC[C@H](NC(=O)c1ccn(S(C)(=O)=O)c1)C(=O)Nc1nc(-c2ccc(F)c(N3C[C@@H](C)O[C@@H](C)C3)n2)cs1 [Compound 377]	< 0.01 µM	> 0.01 µM		
C[C@@H]1CN(c2nc(-c3csc(NC(=O)CNC(=O)c4ccn(C5(C)COC5)c4)n3)ccc2F)C[C@H](C)O1 [Compound 378]	< 0.01 µM	> 0.01 µM		
C[C@@H]1CN(c2nc(-c3csc(NC(=O)CNC(=O)c4ccn(S(C)(=O)=O)c4)n3)ccc2F)C[C@H](C)O1 [Compound 379]	< 0.01 µM	< 0.01 µM		
COC[C@H](NC(=O)c1ccn(S(C)(=O)=O)c1)C(=O)Nc1nc(-c2cc(F)c(F)c(N3C[C@@H](C)O[C@@H](C)C3)c2)cs1 [Compound 380]	< 0.01 µM	< 0.01 µM		
Cn1ncc(-c2cccc(-c3csc(NC(=O)CNC(=O)c4ccn(C(C)(C)C)c4)n3)n2)n1 [Compound 382, 1-tert-butyl-N-[2-[[4-[6-(2-methyltriazol-4-yl)-2-pyridyl]thiazol-2-yl]amino]-2-oxo-ethyl]pyrrole-3-carboxamide]	> 0.01 µM	> 0.01 µM		
CN1CCCc2ccc(-c3csc(NC(=O)CNC(=O)c4ccn(C(C)(C)C)c4)n3)nc21 [Compound 383]	> 0.01 µM	> 0.1 µM		
C[C@@H]1CN(c2cc(-c3csc(NC(=O)CNC(=O)c4ccn(S(C)(=O)=O)c4)n3)cc(F)c2F)C[C@H](C)O1 [Compound 384]	< 0.01 µM	< 0.01 µM		
CS(=O)(=O)n1ccc(C(=O)NCC(=O)Nc2nc(-c3cccc([C@H]4CC[C@H](O)CC4)c3)cs2)c1 [Compound 386, N-(2-((4-(3-((trans)-4-hydroxycyclohexyl)phenyl)thiazol-2-yl)amino)-2-oxoethyl)-1-(methylsulfonyl)-1H-pyrrole-3-carboxamide]			< 0.01 µM	< 0.01 µM

Further lines, results first:

IC50 (BRM; read-out: BRM IP50 (μM)*)	IC50 (BRG-1; read-out: BRG1 IP50 (μM)*)	IC50 (BRM; read-out: BRM IP50)	IC50 (BRG-1; read-out: BRG1 IP50)	Compound
> 0.1 µM	> 0.1 µM			COC[C@H](NC(=O)c1ccn(C(C)(C)C)n1)C(=O)Nc1nc(-c2ccc3ccn(C)c(=O)c3c2)cs1 [Compound 345]
> 0.01 µM	> 0.01 µM			CCn1ccc2ccc(-c3csc(NC(=O)[C@H](COC)NC(=O)c4ccn(C(C)(C)C)c4)n3)cc2c1=O [Compound 347]
> 0.01 µM	> 0.01 µM			C[C@H](NC(=O)c1ccn(C2(C)COC2)c1)C(=O)Nc1nc(-c2ccc3ccn(C)c(=O)c3c2)cs1 [Compound 348]
> 0.01 µM	> 0.01 µM			COC[C@H](NC(=O)c1ccn(S(C)(=O)=O)c1)C(=O)Nc1nc(-c2ccc3c(c2)C(=O)N(C)CC3)cs1 [Compound 351]
< 0.01 µM	< 0.01 µM			COC[C@H](NC(=O)c1ccn(S(C)(=O)=O)c1)C(=O)Nc1nc(-c2cccc(-c3cnn(C)n3)c2)cs1 [Compound 352]
> 0.01 µM	> 0.01 µM			COC[C@H](NC(=O)c1ccn(S(C)(=O)=O)c1)C(=O)Nc1nc(-c2cccc(C3=CC(C)(C)OC(C)(C)C3)c2)cs1 [Compound 354]
> 0.01 µM	> 0.01 µM			COC[C@H](NC(=O)c1ccn(S(C)(=O)=O)c1)C(=O)Nc1nc(-c2cccc(-c3cccc(C)n3)c2)cs1 [Compound 356]
< 0.01 µM	< 0.01 µM			COC[C@H](NC(=O)c1ccn(S(C)(=O)=O)c1)C(=O)Nc1nc(-c2cccc(-c3ccnc(C)n3)c2)cs1 [Compound 357, N-[(1S)-1-(methoxymethyl)-2-[[4-[3-(2-methylpyrimidin-4-yl)phenyl]thiazol-2-yl]amino]-2-oxo-ethyl]-1-methylsulfonyl-pyrrole-3-carboxamide]
< 0.01 µM	< 0.01 µM			COC[C@H](NC(=O)c1ccn(S(C)(=O)=O)c1)C(=O)Nc1nc(-c2cccc(-c3cc(C)nc(C)n3)c2)cs1 [Compound 358, N-[(1S)-2-[[4-[3-(2,6-dimethylpyrimidin-4-yl)phenyl]thiazol-2-yl]amino]-1-(methoxymethyl)-2-oxo-ethyl]-1-methylsulfonyl-pyrrole-3-carboxamide]
< 0.01 µM	< 0.01 µM			COC[C@H](NC(=O)c1ccn(S(C)(=O)=O)c1)C(=O)Nc1nc(-c2cccc(-c3ccnc(C(F)F)c3)c2)cs1 [Compound 359]
> 0.01 µM	> 0.01 µM			COC[C@H](NC(=O)c1ccn(S(C)(=O)=O)c1)C(=O)Nc1nc(-c2cccc(-c3cnn(C)c3)c2)cs1 [Compound 360]
< 0.01 µM	> 0.01 µM			COC[C@H](NC(=O)c1ccn(S(C)(=O)=O)c1)C(=O)Nc1nc(-c2cccc(N3CCC3)c2)cs1 [Compound 366]
> 0.01 µM	> 0.01 µM			COC[C@H](NC(=O)c1ccn(S(C)(=O)=O)c1)C(=O)Nc1nc(-c2cccc(N3CC(OC)C3)c2)cs1 [Compound 367]
< 0.01 µM	< 0.01 µM			COC[C@H](NC(=O)c1ccn(S(C)(=O)=O)c1)C(=O)Nc1nc(-c2cccc(N3C[C@@H](C)O[C@@H](C)C3)c2)cs1 [Compound 371]
< 0.01 µM	> 0.01 µM			COC[C@H](NC(=O)c1ccn(S(C)(=O)=O)c1)C(=O)Nc1nc(-c2cccc(N3CCO[C@H](C)C3)c2)cs1 [Compound 372]
< 0.01 µM	> 0.01 µM			COC[C@H](NC(=O)c1ccn(S(C)(=O)=O)c1)C(=O)Nc1nc(-c2cccc(N3CCO[C@@H](C)C3)c2)cs1 [Compound 373]
< 0.01 µM	> 0.01 µM			COC[C@H](NC(=O)c1ccn(C(C)(C)C)c1)C(=O)Nc1nc(-c2ccnc(N3C[C@@H](C)O[C@@H](C)C3)n2)cs1 [Compound 381]

Source: patent US20230079819A1, “COMPOUNDS AND USES THEREOF” (Foghorn Therapeutics Inc., priority 2019, published 2023)
